For 3 molecules, IC50 results are on record in publication PMC7926640, “Synthesis, Neuroprotection, and Antioxidant Activity of 1,1′-Biphenylnitrones as α-Phenyl-N-tert-butylnitrone Analogues in In Vitro Ischemia Models” (Molecules, 2021).

The structures appear in SMILES notation.

The assay addresses T1, soybean lipoxygenase (LOX) (Glycine max, UniProt P08170).
T1 construct: gene LOX1.1
T1 sequence (P08170 1-839): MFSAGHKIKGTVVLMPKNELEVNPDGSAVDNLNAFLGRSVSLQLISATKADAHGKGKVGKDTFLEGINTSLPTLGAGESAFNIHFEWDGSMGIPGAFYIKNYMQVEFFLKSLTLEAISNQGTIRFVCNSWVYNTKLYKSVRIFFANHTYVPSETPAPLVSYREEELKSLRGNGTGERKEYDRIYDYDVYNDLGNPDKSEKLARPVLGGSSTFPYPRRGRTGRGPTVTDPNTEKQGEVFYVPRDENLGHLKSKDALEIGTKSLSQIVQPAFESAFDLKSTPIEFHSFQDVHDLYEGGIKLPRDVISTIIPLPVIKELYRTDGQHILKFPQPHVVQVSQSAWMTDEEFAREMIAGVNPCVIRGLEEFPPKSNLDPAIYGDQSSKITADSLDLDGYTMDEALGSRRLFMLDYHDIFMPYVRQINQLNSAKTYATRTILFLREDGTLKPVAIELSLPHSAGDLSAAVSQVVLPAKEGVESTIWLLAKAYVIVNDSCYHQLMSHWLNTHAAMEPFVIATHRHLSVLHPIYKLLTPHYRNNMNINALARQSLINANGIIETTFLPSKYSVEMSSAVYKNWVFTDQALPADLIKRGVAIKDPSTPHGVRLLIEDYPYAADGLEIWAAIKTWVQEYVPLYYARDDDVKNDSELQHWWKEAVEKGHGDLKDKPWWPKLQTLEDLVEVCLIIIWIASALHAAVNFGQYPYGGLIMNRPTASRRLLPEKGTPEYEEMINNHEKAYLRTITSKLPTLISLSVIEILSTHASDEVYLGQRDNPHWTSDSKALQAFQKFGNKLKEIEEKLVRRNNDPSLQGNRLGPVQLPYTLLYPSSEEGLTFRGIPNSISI
Description: soybean LOX inhibition, linoleate oxidation monitored at […] nm. The assay is classed as biochemical.
What is called IC50 is the concentration that inhibits the measured activity by half. Regarding `C/[N+]([O-])=C/c1ccc(-c2ccccc2)cc1` [compound 1, (Z)-1-([1,1′-Biphenyl]-4-yl)-N-methylmethanimine oxide], inhibition was half-maximal at 100 µM (IC50).
With `[O-]/[N+](=C\c1ccc(-c2ccccc2)cc1)Cc1ccccc1` [compound 3, (Z)-1-([1,1′-Biphenyl]-4-yl)-N-benzylmethanimine oxide], the IC50 is 57.5 µM.
Consider `CC(C)(C)/[N+]([O-])=C/c1ccc(-c2ccc(/C=[N+](\[O-])C(C)(C)C)cc2)cc1` [compound 5, (1Z,1′Z)-1,1′-([1,1′-Biphenyl]-4,4′-diyl)bis(N-tert-butylmethanimineoxide)], for which half-maximal inhibition (IC50) was put at 100 µM.
